# Measured values as given in patent US20090208981A1, “Method for Analysis of Interaction Between Small Molecules and Cells and Apparatus thereof” (priority 2005, published 2009).
# Tested on: peripheral blood mononuclear cell (PBMC)
# Test: Cell chromatography retention time of drug-treated PBMC on polystyrene column (150 mm×10 mm), detection at 500 nm
# Format: cell-based
# Conditions: PBMC treated with 10 μg/ml for 2 minutes; PBS pH 7.4, 1 ml/min; un-treated control about 7.7 minutes; FIG. 3
# Protocol: In this example, the column used for analysis of the interaction between small molecule and cell has an inner diameter of 10 mm, a length of 150 mm and a volume of 11.8 ml (150 mm×10 mm). This column was packed with resin particles (size: 1 or 2 millimeter; material: polystyrene) and was washed first and thereafter, filled with a phosphate buffered saline (PBS).
# The method is similar as described as above. Whole Blood was separated first by centrifugation using dextran cell separation medium (Ficoll) to yield peripheral blood mononuclear cell (PBMC). Then PBMC was diluted with phosphate buffered saline (PBS) into a cell suspension at concentration of 1×10^6 cells/ml.
# Lectin: treated PBMC by 10 μg/ml lectin for two minutes;
# Shikonin: treated PBMC by 10 μg/ml shikonin for two minutes.
# The cell suspension was added with lectin or shikonin at a concentration of 10 μg/ml (lectin treated group or shikonin treated group). After reacting for 2 minutes, drug-treaded group or un-treated group (control) was loaded on the upper frontier of the column (150 mm×10 mm) respectively, and after adding PBS (pH 7.4) to a level of a pre-determined height, the column was eluted with PBS (pH 7.4) at a steady flow rate of 1 ml/min provided under the action of a pump and integrated with a spectrophotometer, which eluted cells were continuously detected with a wavelength of 500 nm. […]
smiles,measurement,value
CC(C)=CC[C@@H](O)C1=CC(=O)c2c(O)ccc(O)c2C1=O [shikonin],retention time of treated cell in the column,6.5 min
